Source: article PMC2710614 (Chemistry & biology, 2009)

Molecular target: TrpRS (Escherichia coli, UniProt P00954)
Experiment: ATP-PPi exchange of gamma-18O4-ATP, MALDI-TOFMS
Assay type: biochemical
Details: 1 mM amino acid, 1 mM gamma-18O4-ATP, 5 mM MgCl2, 5 mM PPi, 20 mM Tris pH 7.5, 30 min at 25 °C

%γ-^18O4-ATP exchange: 9.7 ± 1.6%
SMILES: N[C@@H](Cc1c[nH]c2ccccc12)C(=O)O [Trp]
